The values that follow are results of earlier work, collected in patent publication US6409991B1, “Treatment and system for nicotine withdrawal” (priority 1999, dated 2002).

The structures appear in SMILES notation.

Regarding `CN1CCCC1c1cccnc1` (stereo not shown) [nicotine], the plasma half-life result is reported as “approximately two”.
